Source: patent US12440471B2, “Compositions and methods for the treatment of bronchopulmonary dysplasia (BPD) and BPD-associated pulmonary hypertension” (AyuVis Research, Inc., priority 2021, dated 2025)

Legend:
[1] = test system: hyperoxia-exposed BPD mouse model; assay: BPD mouse model: immunofluorescence (Ki67, PCNA, vWF) and TUNEL staining of lung; format: in vivo
Source text: AVR-48 restored lung morphology and improved alveolar cellular physiology. After assessment of the safety profile of the AVR-48, and confirmation of the ideal dose to be used, the inventors then performed studies to evaluate the therapeutic effect on the lung in the experimental BPD mouse model, as previously described (Bhandari, Choo-Wing et al. 2008, Leary, Das et al. 2019, Das, Acharya et al 2020, Das, Curstedt et al 2020). BPD is characterized by enlarged simplified alveoli with large air sacs, thickened septum, and thin alveolar epithelium (FIG. 2A) accompanied by overall decrease in alveolar cell proliferation, decreased/dysregulated angiogenesis and increased cell death. All these features were restored after injection of 2 doses of AVR-48, IP (10 mg/kg) on days P2 and P4. […] The total inflammatory cells present in the BALF (FIG. 3A) and the total protein content (FIG. 3B)—both increase in BPD, was decreased after treatment with AVR-48. […] To assess cell specificity, the inventors focused on Type I and Type II alveolar epithelial cells (AECs), as they are most relevant to the process of alveolarization, as described in the manuscript. The inventors utilized the receptor for advanced glycation end-products (RAGE) as the preferred marker for Type I AECs and surfactant protein (SP)-C for the Type II AECs. Due to Ki67 and SP-C being raised in the same species, we used proliferating cell nuclear antigen (PCNA) expression—a well-established marker of cell proliferation because cells remain a longer time in the G1/S phase when proliferating—as a preferred marker for proliferating cells. […] There were few cells which were double positive for PCNA as well as RAGE in the RA and RA+AVR-48 groups (FIG. 4C).
Histology, immunohistochemistry and immunofluorescence. Both the RA control and BPD mice were anesthetized (using an overdose of a cocktail of xylazine-ketamine) and lung and heart tissues were harvested after perfusion and fixed overnight in 4% paraformaldehyde. Fixed tissues were then washed in fresh PBS, dehydrated using 70% ethanol, cleared, and embedded in paraffin to be sectioned and stained with hematoxylin and eosin (H&E) for lung morphometry or immunohistochemistry/immunofluorescence as previously described (Leary, Das et al. 2019, Das, Achaiya et al. 2020, Das, Curstedt et al. 2020). Immunofluorescence staining was done for Ki67 (Abcam, 1:10) and Von Wilebrand Factor (vWF-DAKO, 1:100) on lung paraffin sections following the protocol as described earlier (Leary, Das et al. 2019) while TUNEL staining was done following the manufacturer's instructions (Roche).
For quantification of cell proliferation and cell death, the entire lung section was divided into 3 areas, and the total number of Ki67+ve and TUNEL+ve cells nuclei were counted manually which was normalized with the total number of nuclei to give a percentage of positive cells. For vWF quantification, total number of closed vessels were counted per high power field area in one lung section. A minimum of 3 areas were chosen, and 3-7 animals were used for staining and counting.

pre-term lamb BPD model = assay: Pre-term lamb BPD model: BAL fluid protein, VEGF, ICAM-1; format: in vivo; details: for VEGF concentrations in BAL fluid: vs vehicle after 10 days
Procedure: A total 9 lambs were used for this study. One dose of Curosurf was given intratracheally to the PT lamb just after birth. Randomized doses of compound AVR-48 (8) (0, 0.1, 0.3, 1.0 and 3.0 mg/kg) were administered intravenously every 12 hr after the initial dose that will be given at 6 hr after delivery to n=2-4 lambs via slow intravenous injection. The beginning treatment at 6 hr post-delivery is selected to represent the human case where neonatologists attempt to allow an infant to breath without mechanical ventilation, if possible, and then begin invasive respiratory support as necessary. Whole blood was drawn from PT lambs at the time of delivery (“pre-dose”), immediately after dosing (IAD), at 15, 30, 45, and 60 min, and at 2, 4, 8, 12, 24, 48, 72, and 96 hr after the initial dose. Plasma extractions and bioanalysis of compound AVR-48 (8) were performed using a qualified bioanalysis method already developed by us. The PK parameters were calculated following both non-Compartmental Pharmacokinetic Modeling and population Pharmacokinetic Modeling as described by Roberts et al previously (Roberts, Stockmann et al. 2016). Blood was collected every 15 min for the first 90 min of postnatal life, followed by every 3 hours for 12 hours and then spaced at 1.5 d, 2.5 d, 3.5 d, 6.5 d, and 9.5 d for analysis of cytokines (Visconti, Senthamaraikannan et al. 2018) and VEGF levels (Albertine, Dahl et al. 2010). The blood samples also were analyzed for hematology and liver enzymes. After 6-7 d of mechanical ventilation, the lambs will be weaned from mechanical ventillation and weaned to non-invasive support for 3 d to ascertain longer-term outcome (Dahl, Bowen et al. 2018). Terminally, the PT lambs were euthanized after 10 days and their heart/lungs and brain were removed. Ex vivo BAL of the right cranial lobe (it has its own bronchus, pulmonary artery and vein) was done for similar analyses. Tracheal aspirates were collected according to the protocol for cytokines, BAL protein, ICAM-1 and VEGF. The spleen was collected to analyze immune cell population, using FACS.
Bronchoalveolar lavage fluid (BALF) Analysis. Pups were sacrificed on PN14, and the trachea was cannulated with a small-caliber needle by instilling PBS endotracheally at […] pressure for 15 minutes. Two volumes of 300 μL of cold 1×PBS were instilled, gently aspirated, and pooled. Samples were centrifuged at 1000×g for 10 minutes at 4° C. The supernatant was collected, and total protein was quantified using the Pierce™ BCA Protein Assay Kit (Fisher Scientific Co, Houston, TX). The total cell count was done using the TC20 cell counter (BioRad, Hercules, CA). Similar method was followed for analyzing the protein concentration in BAL fluid collected from preterm lambs.

[2] = vs vehicle treated lambs after 10 days

CC(=O)N[C@@H]1C(Oc2ccc([N+](=O)[O-])cc2)OC(CO)C(O)C1O (stereo partly drawn) [AVR-48]
cell proliferation (Ki67 immunostaining) ([1]; 10 mg/kg IP P2 and P4, vs BPD): revival in cell proliferation | RAGE+ve cells co-localization with PCNA (Type I AECs) ([1]; BPD or BPD+AVR-48 groups): did not co-localize with PCNA | cells co-localizing SP-C and PCNA (proliferating Type II AECs) ([1]; BPD vs RA, RA+AVR-48, BPD+AVR-48): less in the BPD group as compared to RA, RA+AVR-48 and BPD+AVR-48 groups | blood vessels (vWF immunostaining) ([1]; vs BPD group): showed improvement | cell death (TUNEL staining, cleaved caspase 3 immunoblotting) ([1]; vs BPD group): decrease in cell death | VEGF concentrations in BAL fluid (pre-term lamb BPD model; high dose (3.0 mg/kg)): no effect | VEGF concentrations in BAL fluid (pre-term lamb BPD model; low doses): increase | ICAM-1 concentrations in BAL fluid (pre-term lamb BPD model; [2]): increase | total protein concentration in BAL fluid (pre-term lamb BPD model; [2]): decreased
